According to patent US11613531B2, “Inhibitors of RHO associated coiled-coil containing protein kinase” (Kadmon Corporation, LLC, priority 2017, dated 2023):

Key:
[1] = target: Recombinant ROCK1 (amino acids 1-535) (Homo sapiens (Human), UniProt Q13464); assay: Z′-Lyte kinase assay, ROCK1; type: biochemical; conditions: 9 points 2-fold serial dilution
Method in brief: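 IC50s derive from nonlinear curve fits over a 9-point, 2-fold dilution series, with single-point inhibition at 1 μM expressed relative to DMSO. Activity of truncated human ROCK1 (residues 1-535) and ROCK2 (residues 1-552) measured with the Z′-Lyte kinase format.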

[2] = system: UUO-induced renal fibrosis in mice; assay: Unilateral ureteral obstruction (UUO)-induced renal fibrosis model; type: in vivo; conditions: oral 3 mg/kg BID, 6 mg/kg BID and 10 mg/kg QD, Day 10, Masson's trichrome
Description: FIG. 11a. ROCK inhibitor is active in a mouse model of renal fibrosis. Representative images of kidney sections stained with Masson's trichrome to visualize collagen and fibrosis in mice treated with ROCK inhibitor in the ureteral obstruction (UUO) induced renal fibrosis mouse model.
FIG. 11b. Quantitation of the decrease in the interstitial fibrosis index in the histopathological analysis of the images from ROCK inhibitor and vehicle treated mice in the UUO induced renal fibrosis mouse model.
Unilateral Ureteral Obstruction (UUO)-Induced Renal Fibrosis Model in Mice
Male C57B/L6 mice were anesthetized with Isoflurane and placed in dorsal recumbency and the abdominal region was shaved and prepared for surgery with alternating scrub wipes of iodine or chlorhexidine scrub and 70% isopropyl alcohol. […] All animals were monitored closely for 3 days. […]
To assess the activity of ROCK inhibitors in modulation of additional organ fibrosis in an in vivo setting, ROCK inhibitor was tested in a UUO model of renal fibrosis. […] The animals were sacrificed on Day 10 following surgery and the extent of fibrosis was determined by histopathological analysis of fixed kidney sections stained with Masson's trichrome. […]
The improvement in the kidney fibrosis following UUO was quantitated based on the individual image scores by a pathologist blinded to the group assignments. […]

[3] = system: Histamine-induced vascular permeability in mice; assay: Histamine-induced vascular permeability model; type: in vivo; conditions: single oral dose 1 hr. prior to histamine injection
Description: FIG. 12a. ROCK inhibition stabilizes the endothelial barrier function in a histamine-induced vascular permeability model in mice. Representative images of Evan's Blue dye extravasation induced by histamine in the skin of ROCK inhibitor and vehicle treated mice, relative to the control compound (salbutamol). ROCK inhibitor induces vascular barrier stabilization following single dose of compound administered 1 hr. prior to histamine injection.
FIG. 12b. Quantitation of the decrease in spot area size and Evan's Blue dye amount in the skin of ROCK inhibitor treated mice following the induction of capillary leakage by histamine injection.
Histamine-Induced Vascular Permeability Model in Mice […]
20 minutes post challenge with histamine, animals were euthanized. The skin was then inverted, the lesion diameters were measured. The area of the lesion was calculated and expressed in square millimeters. Following diameter measurements, Evan's Blue dye was extracted from the skin tissue and the optical density was measured. Data are calculated against a spiked in Evan's Blue standard curve. […]
The extent of compound efficacy was quantitated by calculating both the overall skin spot area and the amount of Evans Blue dye permeating the skin. 20 Minutes post challenge with histamine, animals were euthanized, the lesion diameters were measured. […]

Recombinant ROCK1 (amino acids 1-535), sequence (Q13464 1-535): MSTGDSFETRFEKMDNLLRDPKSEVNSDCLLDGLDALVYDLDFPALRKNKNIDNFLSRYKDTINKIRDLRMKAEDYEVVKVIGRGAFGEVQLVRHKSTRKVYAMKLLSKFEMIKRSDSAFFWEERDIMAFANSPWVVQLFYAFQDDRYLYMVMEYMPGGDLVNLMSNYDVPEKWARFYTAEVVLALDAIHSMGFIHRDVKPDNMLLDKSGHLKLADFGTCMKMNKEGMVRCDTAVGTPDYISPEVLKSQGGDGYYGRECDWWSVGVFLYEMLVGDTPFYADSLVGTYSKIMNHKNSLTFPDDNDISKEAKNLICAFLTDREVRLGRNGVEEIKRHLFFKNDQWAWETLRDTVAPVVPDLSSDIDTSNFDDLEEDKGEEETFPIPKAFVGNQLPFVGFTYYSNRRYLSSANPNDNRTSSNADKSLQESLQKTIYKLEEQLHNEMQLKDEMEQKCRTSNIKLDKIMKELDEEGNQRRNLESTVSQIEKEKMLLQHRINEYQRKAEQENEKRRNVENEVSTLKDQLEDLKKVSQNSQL

Question: `Clc1cnc(N2C3CCC2CNC3)nc1Nc1ccc2[nH]ncc2c1` [Example 192, N-(2-(3,8-diazabicyclo[3.2.1]octan-8-yl)-5-chloropyrimidin-4-yl)-1H-indazol-5-amine] was tested. Which IC50 [1] did it give?
Answer: Its IC50 is 5 nM.

Question: And the “amount of interstitial collagen in the obstructed kidney” value [2]?
Answer: The value was “significantly lower”.

Question: What about the “vascular permeability induced by histamine (Evan's Blue dye extravasation)” value [3] of the same compound?
Answer: Its value is “blocked”.
